Data as given in US20250051403A1, “ANTIMICROBIAL PEPTIDES, VARIANTS AND CHEMICAL ANALOGUES THEREOF AND THEIR USES” (priority 2021, published 2025).

Key:
[1] = test system: Bacillus subtilis (ATCC 6633); assay: MIC, broth microdilution; type: cell-based; details: Table IV, strain description
Method: To standardize the bacterial cell suspension for assay of antibacterial activity, some colonies of each strain grown overnight on MHA (Mueller Hinton Agar. ROTH) plates were suspended in MHB (Mueller Hinton Broth. ROTH) or MHB saline (Mueller Hinton Broth containing 565 mM NaCl) and incubated at 37° C. or 30° C. until visible turbid. This log-phase inoculum was diluted 1:100 in the same culture media. Using sterile 96-well microtiter plates (CELLSTAR. Greiner bio-one), serial 2-fold dilutions (40 to 0.78 μM) of each peptide were prepared in cation-adjusted acetic acid 0.02% with 0.4% BSA (Bovin Serum Albumin fraction V. Boehringer) at a volume of 10 μL/well. Each well was inoculated with 100 μL of the standardized bacterial inoculum, corresponding to a final test concentration of about 10^5 CFU/mL. Antimicrobial activities were expressed as the MIC (Minimal Inhibitory Concentration), the lowest concentration of peptide at which 100% inhibition of microbial growth was observed after 24 h of incubation at 37° C. or 30° C. by measuring OD600 in a microtiter plate reader. The minimal bactericidal concentration (MBC) was defined as the peptide concentration where no colony growth was observed.
The same experiments as described in 1) were performed. For the evaluation of antimicrobial activity against some other strains, a resazurin microtiter assay was used as explained hereinafter.

[2] = test system: B. subtilis nisin resistant (DSMZ 347); details: Table IV, strain description

## Nisin
[1]
  MIC Nisin: (MIC Nisin < 0.09 μg/mL)
[2]
  MIC Nisin: MIC (Nisin 3 μg/mL)
